The target of test [1] is Casein kinase I isoform epsilon (Homo sapiens, UniProt P49674).
For the next test, the target named is Activin receptor type-2B (Homo sapiens, UniProt Q13705).
The target of test [2] is Chromodomain-helicase-DNA-binding protein 4 (Homo sapiens, UniProt Q14839).
Test [3] deals with T1, Exosome RNA helicase MTR4 (Homo sapiens, UniProt P42285).
T1 sequence (P42285 whole entry): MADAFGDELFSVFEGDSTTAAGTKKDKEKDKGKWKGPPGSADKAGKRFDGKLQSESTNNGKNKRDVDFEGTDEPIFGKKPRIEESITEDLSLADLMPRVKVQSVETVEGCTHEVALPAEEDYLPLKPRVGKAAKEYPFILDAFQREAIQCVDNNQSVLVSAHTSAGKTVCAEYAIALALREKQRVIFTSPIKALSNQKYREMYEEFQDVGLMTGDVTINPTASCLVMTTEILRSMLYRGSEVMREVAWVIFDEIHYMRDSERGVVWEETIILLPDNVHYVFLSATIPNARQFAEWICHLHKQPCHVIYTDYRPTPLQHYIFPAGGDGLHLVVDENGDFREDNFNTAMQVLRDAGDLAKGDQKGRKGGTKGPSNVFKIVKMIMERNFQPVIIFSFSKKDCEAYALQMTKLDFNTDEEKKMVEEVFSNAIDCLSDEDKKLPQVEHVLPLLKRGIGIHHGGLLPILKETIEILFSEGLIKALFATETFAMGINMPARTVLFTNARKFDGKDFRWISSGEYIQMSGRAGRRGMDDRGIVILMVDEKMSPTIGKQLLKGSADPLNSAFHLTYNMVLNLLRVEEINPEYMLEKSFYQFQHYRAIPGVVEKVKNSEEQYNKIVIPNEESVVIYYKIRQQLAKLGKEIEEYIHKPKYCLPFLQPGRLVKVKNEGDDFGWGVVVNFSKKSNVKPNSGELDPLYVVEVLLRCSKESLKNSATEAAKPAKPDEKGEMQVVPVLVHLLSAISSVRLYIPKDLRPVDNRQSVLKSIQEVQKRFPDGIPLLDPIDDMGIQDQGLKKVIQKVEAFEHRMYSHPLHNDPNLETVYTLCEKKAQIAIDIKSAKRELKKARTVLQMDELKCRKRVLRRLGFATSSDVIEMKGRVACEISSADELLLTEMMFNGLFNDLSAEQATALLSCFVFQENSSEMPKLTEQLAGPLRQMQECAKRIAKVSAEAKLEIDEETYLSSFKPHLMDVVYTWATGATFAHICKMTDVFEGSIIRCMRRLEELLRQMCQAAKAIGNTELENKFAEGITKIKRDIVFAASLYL

The next test addresses LIM domain kinase 2 (Homo sapiens, UniProt P53671).
Test [4] deals with T2, Serine/threonine-protein kinase 3 (Homo sapiens, UniProt Q13188).
T2 sequence (Q13188 whole entry): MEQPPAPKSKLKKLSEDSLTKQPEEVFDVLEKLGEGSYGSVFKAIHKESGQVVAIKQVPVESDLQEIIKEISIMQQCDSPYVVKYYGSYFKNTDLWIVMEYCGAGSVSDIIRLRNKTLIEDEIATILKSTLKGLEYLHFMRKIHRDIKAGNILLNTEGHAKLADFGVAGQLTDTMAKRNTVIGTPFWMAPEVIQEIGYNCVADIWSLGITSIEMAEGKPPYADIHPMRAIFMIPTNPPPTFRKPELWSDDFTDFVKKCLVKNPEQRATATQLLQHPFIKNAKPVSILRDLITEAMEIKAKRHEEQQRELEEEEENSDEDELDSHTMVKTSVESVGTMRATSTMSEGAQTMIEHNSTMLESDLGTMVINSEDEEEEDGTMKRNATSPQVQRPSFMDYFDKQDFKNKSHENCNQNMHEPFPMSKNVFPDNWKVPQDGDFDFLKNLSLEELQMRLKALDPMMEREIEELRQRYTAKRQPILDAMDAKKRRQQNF

The target in test [5] is Protein kinase C alpha type (Homo sapiens, UniProt P17252).
Test [6] deals with Protein-tyrosine kinase 2-beta (Homo sapiens, UniProt Q14289).
In test [7] the target is T3, General transcription and DNA repair factor IIH helicase subunit XPD (Homo sapiens, UniProt P18074).
T3 sequence (P18074 whole entry): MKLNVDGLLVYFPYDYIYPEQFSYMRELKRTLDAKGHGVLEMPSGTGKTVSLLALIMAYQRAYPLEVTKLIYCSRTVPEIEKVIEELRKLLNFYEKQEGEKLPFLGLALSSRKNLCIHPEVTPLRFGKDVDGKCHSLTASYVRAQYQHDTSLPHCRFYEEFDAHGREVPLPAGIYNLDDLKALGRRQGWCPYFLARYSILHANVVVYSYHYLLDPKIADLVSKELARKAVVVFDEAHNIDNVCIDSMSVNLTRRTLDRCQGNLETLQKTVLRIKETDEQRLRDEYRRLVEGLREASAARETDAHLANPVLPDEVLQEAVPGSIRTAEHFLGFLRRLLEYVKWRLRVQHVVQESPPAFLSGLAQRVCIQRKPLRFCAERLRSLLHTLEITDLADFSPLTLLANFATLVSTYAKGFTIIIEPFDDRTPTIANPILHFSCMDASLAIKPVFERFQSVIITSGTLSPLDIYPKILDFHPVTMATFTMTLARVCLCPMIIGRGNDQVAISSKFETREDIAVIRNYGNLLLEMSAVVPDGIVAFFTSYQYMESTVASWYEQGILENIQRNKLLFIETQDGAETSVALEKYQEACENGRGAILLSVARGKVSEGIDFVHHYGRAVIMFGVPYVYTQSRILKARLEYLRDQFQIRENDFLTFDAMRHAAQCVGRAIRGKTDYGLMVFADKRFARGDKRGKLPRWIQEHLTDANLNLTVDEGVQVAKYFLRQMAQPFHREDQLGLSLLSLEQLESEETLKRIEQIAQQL
Particulars: read-out: Kd apparent; k-562, colo 205, sk-n-be(2) and mv-4-11.

Test [8] has as its target T4, EKC/KEOPS complex subunit TP53RK (Homo sapiens, UniProt Q96S44).
T4 sequence (Q96S44 whole entry): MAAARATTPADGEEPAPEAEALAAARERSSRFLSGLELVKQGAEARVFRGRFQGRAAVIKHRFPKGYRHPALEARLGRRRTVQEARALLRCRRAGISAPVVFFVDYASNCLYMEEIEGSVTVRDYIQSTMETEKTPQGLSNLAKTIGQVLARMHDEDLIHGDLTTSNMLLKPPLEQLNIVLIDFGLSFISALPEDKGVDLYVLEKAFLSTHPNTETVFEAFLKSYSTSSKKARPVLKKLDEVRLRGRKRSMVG

The target in test [9] is Cyclin-dependent kinase 17 (Homo sapiens, UniProt Q00537).

Calls of active or inactive are those of the source. Rule as the data show it, for most assays here: actives have a measured Kd and inactives only a lower limit.
Also: in the data inactive means no Kd found up to 30 µM.

Chain of Casein kinase I isoform epsilon (P49674 whole entry, canonical isoform): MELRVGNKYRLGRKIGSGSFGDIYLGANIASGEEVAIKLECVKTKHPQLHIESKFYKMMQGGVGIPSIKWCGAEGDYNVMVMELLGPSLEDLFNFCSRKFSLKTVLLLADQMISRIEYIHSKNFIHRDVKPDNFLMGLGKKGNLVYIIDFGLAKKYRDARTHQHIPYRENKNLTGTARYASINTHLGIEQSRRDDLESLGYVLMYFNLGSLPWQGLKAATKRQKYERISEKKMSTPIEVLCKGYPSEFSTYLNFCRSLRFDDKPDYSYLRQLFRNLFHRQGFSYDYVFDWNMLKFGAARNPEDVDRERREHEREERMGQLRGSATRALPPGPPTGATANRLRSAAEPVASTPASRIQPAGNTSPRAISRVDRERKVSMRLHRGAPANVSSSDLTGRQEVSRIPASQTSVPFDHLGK
Chain of Chromodomain-helicase-DNA-binding protein 4 (Q14839 whole entry): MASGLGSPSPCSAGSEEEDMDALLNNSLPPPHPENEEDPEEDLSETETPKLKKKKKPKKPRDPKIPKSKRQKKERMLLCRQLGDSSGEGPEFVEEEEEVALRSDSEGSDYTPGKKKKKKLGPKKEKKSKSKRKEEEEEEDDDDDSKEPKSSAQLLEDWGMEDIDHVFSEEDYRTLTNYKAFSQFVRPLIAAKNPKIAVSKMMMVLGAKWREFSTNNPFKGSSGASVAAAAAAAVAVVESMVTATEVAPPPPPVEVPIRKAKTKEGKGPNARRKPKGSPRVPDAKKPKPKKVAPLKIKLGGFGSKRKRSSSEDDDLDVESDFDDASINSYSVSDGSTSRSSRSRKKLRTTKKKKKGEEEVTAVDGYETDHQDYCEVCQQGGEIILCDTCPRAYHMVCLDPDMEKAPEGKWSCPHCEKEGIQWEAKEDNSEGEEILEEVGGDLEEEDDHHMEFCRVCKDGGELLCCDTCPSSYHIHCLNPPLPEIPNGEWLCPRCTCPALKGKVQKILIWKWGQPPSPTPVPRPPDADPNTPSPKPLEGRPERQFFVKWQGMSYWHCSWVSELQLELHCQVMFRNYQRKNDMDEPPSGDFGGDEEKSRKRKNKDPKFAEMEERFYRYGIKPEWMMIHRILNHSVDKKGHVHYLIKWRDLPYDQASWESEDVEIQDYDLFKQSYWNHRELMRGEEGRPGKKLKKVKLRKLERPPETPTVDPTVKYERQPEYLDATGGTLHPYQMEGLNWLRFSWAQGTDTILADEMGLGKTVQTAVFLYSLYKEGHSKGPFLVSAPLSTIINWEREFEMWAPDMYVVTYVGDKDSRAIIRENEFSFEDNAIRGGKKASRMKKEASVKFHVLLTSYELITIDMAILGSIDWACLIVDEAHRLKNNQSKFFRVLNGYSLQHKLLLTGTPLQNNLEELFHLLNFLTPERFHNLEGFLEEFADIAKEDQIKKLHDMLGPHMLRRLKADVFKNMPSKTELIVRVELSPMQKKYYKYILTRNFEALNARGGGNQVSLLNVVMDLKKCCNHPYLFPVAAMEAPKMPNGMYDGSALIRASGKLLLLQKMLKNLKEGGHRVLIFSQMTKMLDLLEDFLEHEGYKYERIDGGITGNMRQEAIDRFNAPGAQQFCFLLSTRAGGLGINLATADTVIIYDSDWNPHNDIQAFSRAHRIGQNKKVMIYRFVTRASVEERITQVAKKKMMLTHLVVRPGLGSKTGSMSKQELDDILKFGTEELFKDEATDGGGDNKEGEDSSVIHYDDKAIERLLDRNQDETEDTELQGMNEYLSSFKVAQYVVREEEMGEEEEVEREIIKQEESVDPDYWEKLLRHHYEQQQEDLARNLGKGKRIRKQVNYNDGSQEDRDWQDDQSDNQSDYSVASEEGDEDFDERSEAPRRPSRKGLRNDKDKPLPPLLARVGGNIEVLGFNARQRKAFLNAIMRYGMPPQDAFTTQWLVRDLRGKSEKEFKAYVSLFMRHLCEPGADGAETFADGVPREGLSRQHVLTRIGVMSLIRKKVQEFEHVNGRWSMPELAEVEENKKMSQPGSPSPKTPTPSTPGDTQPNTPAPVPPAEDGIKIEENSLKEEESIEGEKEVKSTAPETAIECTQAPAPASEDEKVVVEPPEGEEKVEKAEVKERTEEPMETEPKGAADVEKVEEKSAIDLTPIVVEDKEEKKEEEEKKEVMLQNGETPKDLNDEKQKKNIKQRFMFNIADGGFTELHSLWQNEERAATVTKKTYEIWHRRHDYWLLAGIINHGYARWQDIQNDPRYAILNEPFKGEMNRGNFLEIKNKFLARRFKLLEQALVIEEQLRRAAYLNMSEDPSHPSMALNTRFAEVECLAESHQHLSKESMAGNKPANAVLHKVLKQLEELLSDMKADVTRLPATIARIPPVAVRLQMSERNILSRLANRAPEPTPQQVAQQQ
Chain of Activin receptor type-2B (Q13705 whole entry): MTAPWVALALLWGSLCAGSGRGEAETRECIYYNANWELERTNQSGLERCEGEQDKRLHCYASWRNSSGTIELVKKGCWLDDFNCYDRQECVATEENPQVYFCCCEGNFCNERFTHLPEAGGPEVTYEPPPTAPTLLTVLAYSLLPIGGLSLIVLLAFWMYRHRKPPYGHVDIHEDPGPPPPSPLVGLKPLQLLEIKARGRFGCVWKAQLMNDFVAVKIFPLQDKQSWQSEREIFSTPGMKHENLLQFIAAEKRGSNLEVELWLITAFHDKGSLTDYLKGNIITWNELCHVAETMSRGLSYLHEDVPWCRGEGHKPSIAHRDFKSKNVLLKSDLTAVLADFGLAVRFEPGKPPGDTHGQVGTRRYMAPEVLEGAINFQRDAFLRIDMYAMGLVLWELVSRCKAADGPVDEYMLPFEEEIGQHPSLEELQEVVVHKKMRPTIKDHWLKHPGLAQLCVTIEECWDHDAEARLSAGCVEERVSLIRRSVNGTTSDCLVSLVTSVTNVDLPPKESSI
Chain of Protein-tyrosine kinase 2-beta (Q14289 whole entry): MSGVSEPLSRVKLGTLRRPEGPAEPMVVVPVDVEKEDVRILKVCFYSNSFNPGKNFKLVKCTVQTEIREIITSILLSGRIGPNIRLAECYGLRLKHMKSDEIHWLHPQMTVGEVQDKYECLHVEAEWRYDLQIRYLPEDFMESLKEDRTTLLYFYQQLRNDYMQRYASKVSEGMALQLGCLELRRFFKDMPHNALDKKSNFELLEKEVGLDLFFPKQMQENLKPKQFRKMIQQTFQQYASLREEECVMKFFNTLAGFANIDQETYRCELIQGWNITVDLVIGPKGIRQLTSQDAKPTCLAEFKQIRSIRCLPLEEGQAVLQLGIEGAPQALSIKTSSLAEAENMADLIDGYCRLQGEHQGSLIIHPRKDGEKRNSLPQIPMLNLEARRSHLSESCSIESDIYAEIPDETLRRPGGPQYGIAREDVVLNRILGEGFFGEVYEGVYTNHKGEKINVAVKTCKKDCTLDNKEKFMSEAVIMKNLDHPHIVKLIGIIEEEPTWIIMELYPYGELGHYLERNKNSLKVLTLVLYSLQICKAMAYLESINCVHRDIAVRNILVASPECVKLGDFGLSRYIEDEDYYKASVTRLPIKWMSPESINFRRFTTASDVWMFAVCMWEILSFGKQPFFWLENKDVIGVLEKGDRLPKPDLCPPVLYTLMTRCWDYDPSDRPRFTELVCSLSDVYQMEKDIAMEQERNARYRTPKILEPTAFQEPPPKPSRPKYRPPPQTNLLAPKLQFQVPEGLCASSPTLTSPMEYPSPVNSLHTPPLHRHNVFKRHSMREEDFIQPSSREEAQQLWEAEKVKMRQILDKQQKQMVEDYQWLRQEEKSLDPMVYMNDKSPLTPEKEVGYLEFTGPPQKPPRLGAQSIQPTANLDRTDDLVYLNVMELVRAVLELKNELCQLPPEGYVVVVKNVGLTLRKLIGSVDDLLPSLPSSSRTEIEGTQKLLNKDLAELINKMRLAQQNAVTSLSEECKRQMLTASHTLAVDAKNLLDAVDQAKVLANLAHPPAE
Chain of LIM domain kinase 2 (P53671 whole entry, the tested form may be a part): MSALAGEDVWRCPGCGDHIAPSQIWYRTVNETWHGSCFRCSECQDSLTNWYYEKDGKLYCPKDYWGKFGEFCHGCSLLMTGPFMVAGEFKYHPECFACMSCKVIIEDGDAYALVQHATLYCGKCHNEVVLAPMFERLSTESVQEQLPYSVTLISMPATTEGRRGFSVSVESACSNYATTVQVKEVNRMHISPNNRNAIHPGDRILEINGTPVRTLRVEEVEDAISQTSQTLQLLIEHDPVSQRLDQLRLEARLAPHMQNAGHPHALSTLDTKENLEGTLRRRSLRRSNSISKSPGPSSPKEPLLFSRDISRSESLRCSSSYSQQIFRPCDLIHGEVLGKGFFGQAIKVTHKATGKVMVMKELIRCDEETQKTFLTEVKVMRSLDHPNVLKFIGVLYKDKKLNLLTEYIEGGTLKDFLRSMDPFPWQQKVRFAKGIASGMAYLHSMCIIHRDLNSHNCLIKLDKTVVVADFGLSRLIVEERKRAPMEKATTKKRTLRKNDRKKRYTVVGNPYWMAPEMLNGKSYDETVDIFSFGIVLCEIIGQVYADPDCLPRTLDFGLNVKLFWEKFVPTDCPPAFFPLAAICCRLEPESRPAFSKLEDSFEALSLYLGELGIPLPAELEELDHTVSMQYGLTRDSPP
Chain of Cyclin-dependent kinase 17 (Q00537 whole entry): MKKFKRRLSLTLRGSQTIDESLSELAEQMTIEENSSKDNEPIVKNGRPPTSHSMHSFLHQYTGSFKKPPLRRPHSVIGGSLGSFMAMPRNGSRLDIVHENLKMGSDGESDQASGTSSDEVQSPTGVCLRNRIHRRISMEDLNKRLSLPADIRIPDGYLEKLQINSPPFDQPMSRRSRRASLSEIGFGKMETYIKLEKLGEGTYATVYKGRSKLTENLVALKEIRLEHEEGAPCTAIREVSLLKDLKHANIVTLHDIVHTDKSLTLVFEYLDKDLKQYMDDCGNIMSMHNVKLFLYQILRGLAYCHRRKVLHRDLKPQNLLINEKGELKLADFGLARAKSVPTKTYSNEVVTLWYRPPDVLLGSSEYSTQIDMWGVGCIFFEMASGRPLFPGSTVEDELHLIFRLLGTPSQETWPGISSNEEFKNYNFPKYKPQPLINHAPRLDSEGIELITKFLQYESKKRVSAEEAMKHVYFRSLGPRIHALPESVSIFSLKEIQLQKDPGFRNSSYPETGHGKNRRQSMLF

In the case of `C[C@@H](Oc1cc(C(=O)Nc2ccc(C(=O)N3CCN(C)CC3)cc2)nnc1N)c1c(Cl)ccc(F)c1Cl`, the Kd (in test [1]; at Activin receptor type-2B; in test [2]; in test [3]; at LIM domain kinase 2; in test [4]) was > 30 µM (inactive) throughout. Also, the Kd in [5], in test [6], in test [7] and in test [8] was > 30 µM (inactive) each time.
`CC(=O)c1cnc2ccc(-c3cc(Cl)c(O)c(Cl)c3)nc2c1N[C@H]1CC[C@H](CN(C)C)CC1`: the Kd at Activin receptor type-2B was > 30 µM (inactive); in test [2], > 30 µM (inactive); in [3] it was > 30 µM (inactive); at LIM domain kinase 2 it was > 30 µM (inactive); in test [4] it was 0.07 µM (active); in test [6] it was 0.03 µM (active). In addition, the figures for the Kd in test [7], in [8] and in test [9] were > 30 µM (inactive), 0.311 µM (active) and > 30 µM (inactive), respectively.
Consider `C=CC(=O)N1CCC[C@H](n2c(=O)n(-c3ccc(Oc4ccccc4)cc3)c3c(N)ncnc32)C1`, for which the Kd (in test [1]; at Activin receptor type-2B; in [3]; at LIM domain kinase 2; in test [4]; in test [5]) was > 30 µM (inactive) each time. For the same molecule, the Kd in [6], in test [7], in [8] and in test [9] was > 30 µM (inactive) each time.
On to `Cc1nc(NC(=O)N2CCC[C@H]2C(N)=O)sc1-c1ccnc(C(C)(C)C(F)(F)F)c1` [ALPELISIB], for which the Kd (in test [1]; in test [2]; in test [3]; at LIM domain kinase 2; in test [4]; in test [5]) was > 30 µM (inactive) each time. Besides, the Kd in test [6], in [7] and in [8] was > 30 µM (inactive) in each case.
Regarding `C=CC(=O)Nc1cc2c(Nc3ccc(F)c(Cl)c3)ncnc2cc1C#CC(C)(C)N1CCN(C)CC1` [AV-412 FREE BASE], the Kd (in [1]; on Activin receptor type-2B; in test [2]; in test [3]; at LIM domain kinase 2; in test [4]) was > 30 µM (inactive) in each case. The Kd in test [5], in test [6], in [7] and in [8] was > 30 µM (inactive) throughout.
Consider `COc1c(OCCCN2CCOCC2)ccc2c1N=C(NC(=O)c1cnc(N)nc1)N1CCN=C21` [COPANLISIB], for which the Kd (in [1]; on Activin receptor type-2B; in test [2]; in [3]; on LIM domain kinase 2; in [4]) was > 30 µM (inactive) in each case. Besides, the Kd in test [5], in [6], in test [8] and in [9] was > 30 µM (inactive) each time.
With `O=C(Nc1nc2cccc(-c3ccc(CN4CCS(=O)(=O)CC4)cc3)n2n1)C1CC1` [FILGOTINIB], the Kd (in test [1]; at Activin receptor type-2B; in test [2]; in [3]; at LIM domain kinase 2; in test [4]) was > 30 µM (inactive) each time. The Kd in [5], in test [6], in test [8] and in test [9] was > 30 µM (inactive) in each case.
As to `CCn1cc(-c2ccnc3[nH]c(-c4cccc(CN(C)C)c4)cc23)c(-c2ccc(NC(=O)N(C)C)cc2)n1` [GSK-1070916], the Kd (in test [1]; in test [3]; at LIM domain kinase 2; in test [4]; in test [5]; in test [6]) was > 30 µM (inactive) in each case. The Kd in test [8] and in [9] was > 30 µM (inactive) throughout.
For the molecule `CCS(=O)(=O)c1cccc(-c2cc(C(=O)NC3CCN(C)CC3)c(C)c3[nH]c4ncc(C)cc4c23)c1` [TAK-901], the Kd is > 30 µM (inactive) in [1]; > 30 µM (inactive) at Activin receptor type-2B; > 30 µM (inactive) in test [2]; > 30 µM (inactive) in test [3]; > 30 µM (inactive) at LIM domain kinase 2; 2.76 µM (active) in test [4]. Further, the Kd was 1.61 µM (active) in test [5], 0.19 µM (active) in test [6], > 30 µM (inactive) in [8] and > 30 µM (inactive) in [9].
Regarding `Cn1ncc(Cl)c1-c1cc(C(=O)N[C@H](CN)Cc2ccc(F)c(F)c2)oc1Cl` [UPROSERTIB], the Kd (in test [1]; at Activin receptor type-2B; in test [2]; in [3]; at LIM domain kinase 2; in test [4]) was > 30 µM (inactive) throughout. Moreover, the Kd was 1.67 µM (active) in test [5], > 30 µM (inactive) in test [6], > 30 µM (inactive) in [7] and > 30 µM (inactive) in test [8].

For the origin of these results see ChEMBL document CHEMBL3991601, “The target landscape of clinical kinase drugs” (Science, 2017).
